Results as given in patent publication US20250250258A1, “CRYSTAL FORM OF FGFR4 SELECTIVE INHIBITOR COMPOUND, AND PREPARATION METHOD THEREFOR AND USE THEREOF” (ZHEJIANG HISUN PHARMACEUTICAL CO., LTD., priority 2022, published 2025).
pIC50: −log10 of the molar value. Like-named read-outs stand apart in the source and are kept apart here.

Experiments:
[1] = system: hepatocellular carcinoma cells Hep3B; settings: reported in background for PCT/CN2017/085135 compound, read-out: inhibitory activity against hepatocellular carcinoma cells Hep3B, IC50; cited from earlier work
[2] = Comparative solubility assay in water; assay type: physicochemical
[3] = Stability test (25° C., 40° C., light irradiation of 4500 LX, 30 days); assay type: physicochemical
Procedure: The compound represented by formula (I) of the present disclosure was subjected to HPLC for purity detection under the following conditions. The used chromatographic column was Waters, XBridge C18 4.6×150 mm, 3.5 μm; the mobile phase A consisted of buffer solution: acetonitrile=70:30, the mobile phase B consisted of buffer solution: acetonitrile=[…], the buffer solution was prepared by weighing 9.13 g of dipotassium hydrogen phosphate trihydrate in 2,000 mL of pure water, and adjusting pH using phosphoric acid to 8.0; the detection wavelength was 234 nm; the flow rate was 1.0 mL/min; the column temperature was 25° C.; and the injection volume was 10 μL.

[4] = Pharmacokinetic experiment in ICR mice, single gavage; assay type: in vivo; settings: 75 mg·kg −1, single gavage
Procedure: Before and 0.25, 0.5, 1, 2, 4, 8, 10, 12 and 24 hours after administration, 0.15 mL blood was collected from fundus venous plexus and placed into anticoagulant tubes containing EDTA-K2.

[5] = stability at 25° C., day 0, HPLC
[6] = stability at 25° C., day 10, HPLC
[7] = stability at 25° C., day 30, HPLC
[8] = stability at 40° C., day 0, HPLC
[9] = stability at 40° C., day 10, HPLC
[10] = stability at 40° C., day 30, HPLC
[11] = stability under the light irradiation of 4500LX, day 0, HPLC
[12] = stability under the light irradiation of 4500LX, day 10, HPLC
[13] = stability under the light irradiation of 4500LX, day 30, HPLC

SMILES	pIC50 [1]	solubility in water at 25° C. [2]	solubility ([2]; 25 °C, thermodynamic from solid) [mg/mL]	purity (%) [3, 5] [%]	purity (%) [3, 6] [%]	purity (%) [3, 7] [%]	purity (%) [3, 8] [%]	purity (%) [3, 9] [%]	purity (%) [3, 10] [%]	purity (%) [3, 11] [%]	purity (%) [3, 12] [%]	purity (%) [3, 13] [%]	Tmax ([4]; ICR, mouse, in vivo, po, 75 mg/kg, read-out: Tmax) [min]	solubility in water at 25° C. ([2]; listed as the crystal form A of the compound represented by formula (I)) [mg/mL]	Tmax [4] [min]	Cmax ([4]; mouse, in vivo, po) [ng/mL]	half-life ([4]; mouse, in vivo, po) [min]	AUC(0-t) ([4]; mouse, in vivo, po, 0-24 h sampling) [ng·h/mL]
C=CC(=O)Nc1cc(N2CCN(CC)C3(CC3)C2)ccc1Nc1cc(N(C)C(=O)Nc2c(Cl)c(OC)cc(OC)c2Cl)ncn1 [N-(2-((6-(3-(2,6-dichloro-3,5-dimethoxyphenyl)-1-methylureido)pyrimidin-4-yl)amino)-5-(4-ethyl-4,7-diazaspiro[2.5]octane-7-yl)phenyl)acrylamide]	7.72	insoluble	–	–	–	–	–	–	–	–	–	–	–	–	–	–	–	–
C=CC(=O)Nc1cc(N2CCN(CC)C3(CC3)C2)ccc1Nc1cc(N(C)C(=O)Nc2c(Cl)c(OC)cc(OC)c2Cl)ncn1.CCS(=O)(=O)O.CCS(=O)(=O)O [amorphous form, N-(2-((6-(3-(2,6-dichloro-3,5-dimethoxyphenyl)-1-methylureido)pyrimidin-4-yl)amino)-5-(4-ethyl-4,7-diazaspiro[2.5]octan-7-yl)phenyl)acrylamide diethanesulfonate salt]	–	–	115	98.80	96.60	91.60	98.80	93.40	87.60	98.80	86.20	73.70	30	–	–	–	–	–
C=CC(=O)Nc1cc(N2CCN(CC)C3(CC3)C2)ccc1Nc1cc(N(C)C(=O)Nc2c(Cl)c(OC)cc(OC)c2Cl)ncn1.CCS(=O)(=O)O.CCS(=O)(=O)O [crystal form A, N-(2-((6-(3-(2,6-dichloro-3,5-dimethoxyphenyl)-1-methylureido)pyrimidin-4-yl)amino)-5-(4-ethyl-4,7-diazaspiro[2.5]octan-7-yl)phenyl)acrylamide diethanesulfonate salt]	–	–	–	99.64	99.63	99.62	99.64	99.61	99.60	99.64	99.61	99.54	–	100	36.6	3980	91.2	9340
